The conditions of data set [1]: Liquid; for mass density: 298.15 K, 101.33 kPa.
The nature of data set [2]: refractive index (Na D-line) (dimensionless). Particulars: 298.15 K; 101.33 kPa; Liquid; Standard Abbe refractometry.

Numbers after ± are expanded uncertainties.

Regarding `Cc1ccc(C)cc1` [1,4-dimethylbenzene], the mass density – broadly, the mass of a sample divided by its volume – in data set [1] turned out to be 865.6 ± 4.7 kg/m3. In data set [1] (409.35 K), the vapor or sublimation pressure (usually the equilibrium pressure above the liquid or solid) was 95.8 ± 4.8 kPa. Besides, in data set [2], the refractive index (in general, a measure of how strongly the sample bends light) is on record as 1.4933 ± 0.0007.

As for `COCCOC` [1,2-dimethoxyethane], the mass density in data set [1] amounted to 863.7 ± 1.8 kg/m3. For the same compound, the “vapor or sublimation pressure” value in data set [1] (357.05 K) is 95.8 ± 4.8 kPa. In addition, the refractive index in data set [2] is 1.3781 ± 0.0007.

In the case of `Cc1ccccc1C` [1,2-dimethylbenzene], in data set [1], the mass density worked out at 875.9 ± 1.7 kg/m3. Also, in data set [1] (415.55 K), the “vapor or sublimation pressure” value came out at 95.8 ± 4.8 kPa. Besides, the refractive index in data set [2] is recorded as 1.503 ± 0.0007.

For the compound `Cc1cccc(C)c1` [1,3-dimethylbenzene], the mass density in data set [1] was 860.1 ± 1.8 kg/m3. In addition, the “vapor or sublimation pressure” value in data set [1] (410.35 K) is given as 95.8 ± 4.8 kPa. Further, in data set [2], the refractive index is on record as 1.4946 ± 0.0007.

Consider `CCCCCCCCCC` [decane], for which, in data set [1], the mass density was 726.4 ± 2.9 kg/m3. The “vapor or sublimation pressure” value in data set [1] (445.25 K) came out at 95.8 ± 4.9 kPa. In data set [2], the refractive index is recorded as 1.4097 ± 0.0007.

In the case of `O=C1CCCCC1` [cyclohexanone], the mass density in data set [1] came out at 945.1 ± 1.1 kg/m3. For the same compound, in data set [1] (426.45 K), the “vapor or sublimation pressure” value amounted to 95.8 ± 4.8 kPa. For the same compound, the refractive index in data set [2] is 1.451 ± 0.0007.

For `C1CCOC1` [tetrahydrofuran], the mass density in data set [1] was determined as 889.2 ± 4.7 kg/m3. For the same compound, the “vapor or sublimation pressure” value in data set [1] (337.55 K) came to 95.8 ± 4.8 kPa. The refractive index in data set [2] is recorded as 1.4072 ± 0.0007.

These data come from the NIST ThermoML archive (doi:10.1016/j.fluid.2004.10.027).
